Test results as given in ChEMBL document CHEMBL1158817, “Hyrtioerectines A-C, cytotoxic alkaloids from the red sea sponge hyrtioserectus” (J Nat Prod, 2005).
In brackets after ≈: the same amount, converted by molar mass.

System: HeLa
Experiment: Cytotoxicity against human HeLa cells by Fukuzawa's method
Type: functional, cell-based

How did the IC50 turn out when `O=C(O)C(=O)c1c(-c2c[nH]c3cc(O)ccc23)ncc2[nH]c3ccc(O)cc3c12` [HYRTIOERECTINE A] was run?
Its IC50 is 10 µg/mL (≈ 25.8 µM).

How did the IC50 turn out when `O=C(O)[C@H](O)Cc1c[nH]c2ccc(O)cc12` [HYRTIOERECTINE C] was run?
Its IC50 is 4.5 µg/mL (≈ 20.3 µM).

Which IC50 does the source give for `C[C@H]1N[C@@H](C(=O)O)Cc2c1[nH]c1ccc(O)cc21` [HYRTIOERECTINE B] here?
Its IC50 is 5 µg/mL (≈ 20.3 µM).
